Data as given in patent publication US20260060969A1, “METHODS FOR THE TREATMENT OF LYMPHOPROLIFERATIVE DISORDERS” (INSTITUT NATIONAL DE LA SANTÉ ET DE LA RECHERCHE MÉDICALE, priority 2022, published 2026).

Key:
[1] = system: MRL/MpJ-Faslpr/J mice (MRL-lpr); test: Alpelisib in MRL/MpJ-Faslpr/J (MRL-lpr) mice, model of lymphoproliferative disorder (spleen and lymph node size, flow cytometry); type: in vivo, mouse; conditions: 4 weeks
Text: (§1) They then decided to explore the relevance of alpelisib in MRL/MpJ-Faslpr/J mice (referred here as MRL-lpr), another mouse model of lymphoproliferative disorder. These mice with homozygous Fas mutation usually develop severe lymphadenoproliferation. Female mice die at an average of 18-20 weeks old. They first randomly assigned to either vehicle or alpelisib MRL-lpr female mice at 8 weeks old, before they fully develop diseases.
(§2) FIG. 1: Alpelisib improves lymphoproliferative mouse models. A. Spleen to body weight ratio at the time of sacrifice (4 weeks following treatment either with vehicle or alpelisib) (n=5-15 mice per group). B-F. Percentage of spleen cell population determined by flow cytometry analysis in NZBWF1/J mice treated with either vehicle or alpelisib. Spleen to body weight ratio of MRL-lpr mice treated either with vehicle or alpelisib for 4 weeks (n=14 mice per group). Percentage of peripheral blood monuclear cell (PBMC), bone marrow, spleen and lymph nodes cell population determined by flow cytometry analysis in MRL-lpr mice treated with either vehicle or alpelisib for 4 weeks (n=8-9 mice per group). CD4, CD8, B220, Mac1, Gr1 are used as lineage markers.
FIG. 2: Alpelisib modifies mononuclear cell population in MRL-lpr mice. Flow cytometry analysis of bone marrow, spleen, lymph nodes, and PBMC in MRL-lpr mice treated either with vehicle or alpelisib for 4 weeks (n=8-9 mice per group). CD4, CD8, B220, Mac1, Gr1 are used as lineage markers.
as §1, with “We” for “They”

PROS patients = PROS patients in poor condition; earlier work told in the background; cited from earlier work
NZBWF1/J mice = test: Alpelisib in NZBWF1/J mice, model of lymphoproliferative disorders (spleen size, splenocyte flow cytometry); type: in vivo, mouse; conditions: female NZBWF1/J mice aged 24 weeks, 4 weeks treatment, vs vehicle
Protocol: (§3) Inventors have first investigated the impact of PIK3CA inhibition in NZBWF1/J mice a model of lymphoproliferative disorders. They randomly assigned 30 females aged of 24 weeks to receive either vehicle (n=15) or alpelisib (n=15) during 4 weeks. At the end of the treatment period, mice were sacrificed and flow cytometry was performed in splenocytes.
as §2
as §3, with “We” for “Inventors have”, “We” for “They”

[2] = MRL-lpr mice, PBMC, lymph nodes and spleen
[3] = female MRL-lpr mice treated from 8 weeks old, at sacrifice, vs vehicle

Cc1nc(NC(=O)N2CCC[C@H]2C(N)=O)sc1-c1ccnc(C(C)(C)C(F)(F)F)c1 [alpelisib]
B cells (flow cytometry) [1, 2]: correction | T cells (flow cytometry) [1, 2]: correction | other immune cells (flow cytometry) [1, 2]: correction | lymph node size [1, 3]: reduction | spleen size [1, 3]: reduction | clinical, biological and radiological outcome (PROS patients): clinical, biological and radiological improvements | spleen size (spleen to body weight ratio, FIG. 1A) (NZBWF1/J mice; at sacrifice): significantly reduced | B cells (flow cytometry in splenocytes) (NZBWF1/J mice; spleen): significantly reduced | CD8 cells count (flow cytometry in splenocytes) (NZBWF1/J mice; spleen): corrected
